Data: patent publication US12441768B2, “Compositions and methods for treating endometriosis” (EndoMet Biosciences, Inc., priority 2018, dated 2025)
Where a SMILES comes first, the peptide text is derived from it. The star is where a group is joined. Bn = c1ccc(C*)cc1

Key:
[1] = molecular target: Wnt-responsive promoter (TCF/LEF); test: Wnt-dependent luciferase reporter assay; format: cell-based, murine
Procedure, shortened: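 Murine 3T3 fibroblasts carrying a TCF/LEF-driven luciferase reporter, stimulated with Wnt3a in the presence of increasing peptide concentrations or vehicle. Luminescence inhibition gave EC50 values in uM.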

β-catenin = molecular target: T1, β-catenin (Homo sapiens, UniProt P35222); test: KD50 measurement using competitive fluorescence polarization (FP) with labelled TCF4; format: binding; settings: fluorescence polarization, β-catenin; for Kd: read-out: β-Cat FP KD
T1 sequence (P35222 1-781): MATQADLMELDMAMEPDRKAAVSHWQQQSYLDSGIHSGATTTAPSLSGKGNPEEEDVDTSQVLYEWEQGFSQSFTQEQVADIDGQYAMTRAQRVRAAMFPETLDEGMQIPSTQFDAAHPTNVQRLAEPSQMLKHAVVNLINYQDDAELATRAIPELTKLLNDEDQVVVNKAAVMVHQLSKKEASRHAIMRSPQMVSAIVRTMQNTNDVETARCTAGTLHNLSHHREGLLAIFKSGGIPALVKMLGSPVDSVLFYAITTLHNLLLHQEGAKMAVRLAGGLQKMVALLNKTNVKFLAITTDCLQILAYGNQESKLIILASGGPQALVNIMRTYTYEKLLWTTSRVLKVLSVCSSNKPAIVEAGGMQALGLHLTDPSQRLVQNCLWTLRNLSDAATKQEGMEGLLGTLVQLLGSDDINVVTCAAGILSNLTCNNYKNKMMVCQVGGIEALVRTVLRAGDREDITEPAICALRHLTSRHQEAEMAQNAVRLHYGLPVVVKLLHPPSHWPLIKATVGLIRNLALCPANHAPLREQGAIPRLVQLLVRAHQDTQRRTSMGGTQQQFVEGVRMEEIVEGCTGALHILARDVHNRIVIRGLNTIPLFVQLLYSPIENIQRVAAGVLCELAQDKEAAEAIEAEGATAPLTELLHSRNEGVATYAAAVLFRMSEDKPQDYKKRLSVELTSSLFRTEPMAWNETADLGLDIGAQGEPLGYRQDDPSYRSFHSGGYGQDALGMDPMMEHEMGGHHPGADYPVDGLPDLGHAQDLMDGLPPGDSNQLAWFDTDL
Procedure, shortened: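 Competitive FP in which unlabelled inhibitor (10 nM to 30 uM dilution series) displaces 5 nM labelled TCF4 from 100 nM β-catenin, room temperature. Read-out ex 470 nm, em 520 nm; experiment repeated three times.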

[2] = % Viability non-Wnt responsive cells

SMILES	EC50 [1] [µM]	Kd (β-catenin) [µM]	β-Cat FP Hill slope (β-catenin)	viability [2] [%]
CC[C@H](C)[C@H](NC(=O)[C@@H]1CCC(=O)NCCCC[C@H](N)C(=O)N[C@@H](Cc2c[nH]c3ccccc23)C(=O)N[C@@H](Cc2ccccc2)C(=O)N1)C(=O)N[C@@H](CO)C(=O)N[C@@H](Cc1ccccc1)C(=O)N[C@@H](Cc1c[nH]c2ccccc12)C(=O)NCC(=O)O [compound 208] (HELM PEPTIDE1{K.W.F.E.I.S.F.W.G}$PEPTIDE1,PEPTIDE1,1:R3-4:R3$$$V2.0)	7.5 to 15	1 to 10	0.69	93.4
CC[C@H](C)[C@H](NC(=O)[C@H](CC(C)C)NC(=O)[C@H](Cc1ccccc1)NC(=O)[C@H](Cc1c[nH]c2ccccc12)NC(=O)[C@H](Cc1c[nH]cn1)NC(=O)[C@H](CCCNC(=N)N)NC(=O)[C@H](CO)NC(=O)[C@@H](N)CCSC)C(=O)N[C@@H](CO)C(=O)N[C@@H](Cc1ccccc1)C(=O)N[C@@H](Cc1c[nH]c2ccccc12)C(N)=O [compound 88] (H-MSRHWFLISFW-NH2)	> 30	> 30	–	105
CC[C@H](C)[C@H](NC(=O)[C@H](CC(C)C)NC(=O)[C@@H](NC(=O)[C@H](Cc1c[nH]c2ccccc12)NC(=O)[C@@H](N)CCSC)[C@@H](C)CC)C(=O)N[C@@H](COCc1ccccc1)C(=O)N[C@@H](Cc1ccccc1)C(=O)N[C@@H](Cc1c[nH]c2ccccc12)C(=O)NCC(=O)O [compound 146] (H-MWILIS(Bn)FWG-OH)	> 30	> 30	–	99.1
CC[C@H](C)[C@@H]1NC(=O)[C@H](CC(C)C)NC(=O)[C@H](Cc2ccccc2)NC(=O)[C@H](Cc2c[nH]c3ccccc23)NC(=O)[C@H](CCSC)NC(=O)CCCNC(=O)C[C@@H](C(=O)O)NC(=O)[C@H](Cc2c[nH]c3ccccc23)NC(=O)[C@H](C)NC(=O)[C@H](CS)NC1=O [compound 191] (HELM PEPTIDE1{[O=C(CCCN[*:1])[*:2]].M.W.F.L.I.C.A.W.D}$PEPTIDE1,PEPTIDE1,1:R1-10:R3$$$V2.0)	7.5 to 15	0.4 to 1	1.3	99.1
CC[C@H](C)[C@H](NC(=O)[C@H](CC(C)C)NC(=O)[C@H](Cc1ccccc1)NC(=O)[C@H](Cc1c[nH]c2ccccc12)NC(=O)[C@H](Cc1c[nH]cn1)NC(=O)[C@H](CCCNC(=N)N)NC(=O)[C@H](CO)NC(=O)[C@@H](N)Cc1c[nH]c2ccccc12)C(=O)N[C@@H](CO)C(=O)N[C@@H](Cc1ccccc1)C(=O)N[C@@H](Cc1c[nH]c2ccccc12)C(N)=O [compound 91] (H-WSRHWFLISFW-NH2)	> 30	> 30	–	84.6
CC[C@H](C)[C@H](NC(=O)[C@H](CC(C)C)NC(=O)[C@H](Cc1ccccc1)NC(=O)[C@H](Cc1c[nH]c2ccccc12)NC(=O)[C@H](CCSC)NC(=O)[C@H](CCCNC(=N)N)NC(=O)[C@H](CC(N)=O)NC(=O)[C@@H](N)CCSC)C(=O)N[C@@H](CO)C(=O)N[C@@H](Cc1ccccc1)C(=O)N[C@@H](Cc1c[nH]c2ccccc12)C(=O)NCC(=O)O [compound 61] (H-MNRMWFLISFWG-OH)	7.5 to 15	> 30	–	100
CC[C@H](C)[C@H](NC(=O)[C@H](CC(C)C)NC(=O)[C@H](Cc1ccccc1)NC(=O)[C@@H](N)Cc1c[nH]c2ccccc12)C(=O)N[C@@H](CO)C(=O)N[C@@H](Cc1ccccc1)C(=O)N[C@@H](Cc1c[nH]c2ccccc12)C(N)=O [compound 98] (H-WFLISFW-NH2)	> 30	1 to 10	1.02	96
CC[C@H](C)[C@H](NC(=O)[C@H](CC(C)C)NC(=O)[C@@H](NC(=O)[C@H](Cc1c[nH]c2ccccc12)NC(=O)[C@H](CCSC)NC(=O)[C@@H](N)CCCNC(=N)N)[C@@H](C)CC)C(=O)N[C@@H](CS)C(=O)N[C@@H](Cc1ccccc1)C(=O)N[C@@H](Cc1c[nH]c2ccccc12)C(=O)NCC(=O)O [compound 115] (H-RMWILICFWG-OH)	15 to 22.5	1 to 10	0.7	116

Further lines, with some results ahead:

EC50 [1] [µM]	Kd (β-catenin) [µM]	β-Cat FP Hill slope (β-catenin)	SMILES	viability [2] [%]
< 7.5	> 30	–	CC[C@H](C)[C@H](NC(=O)[C@H](CC(C)C)NC(=O)[C@H](Cc1ccccc1)NC(=O)[C@H](Cc1c[nH]c2ccccc12)NC(=O)[C@@H](N)CCSC)C(=O)N[C@@H](C)C(=O)N[C@@H](Cc1ccccc1)C(=O)N[C@@H](Cc1c[nH]c2ccccc12)C(=O)NCC(=O)O [compound 159] (H-MWFLIAFWG-OH)	107
< 7.5	0.4 to 1	0.7	CC[C@H](C)[C@H](NC(=O)[C@H](CC(C)C)NC(=O)[C@@H](NC(=O)[C@H](Cc1c[nH]c2ccccc12)NC(=O)[C@H](CCSC)NC(=O)C(C)(C)C)[C@@H](C)CC)C(=O)N[C@@H](CO)C(=O)N[C@@H](Cc1ccccc1)C(=O)N[C@@H](Cc1c[nH]c2ccccc12)C(=O)NCC(=O)O [compound 225] (HELM PEPTIDE1{[CC(C)(C)C(=O)[*:2]].M.W.I.L.I.S.F.W.G}$$$$V2.0)	101
< 7.5	0.4 to 1	0.72	CC[C@H](C)[C@H](NC(=O)[C@H](CC(C)C)NC(=O)[C@@H](NC(=O)[C@H](Cc1c[nH]c2ccccc12)NC(=O)[C@@H](N)CCSC)[C@@H](C)CC)C(=O)N[C@@H](CS)C(=O)N[C@@H](Cc1ccccc1)C(=O)N[C@@H](Cc1c[nH]c2ccccc12)C(=O)NCC(=O)O [compound 116] (H-MWILICFWG-OH)	123
< 7.5	1 to 10	0.6	CC[C@H](C)[C@H](NC(=O)[C@H](CC(C)C)NC(=O)[C@H](Cc1ccccc1)NC(=O)[C@H](C)NC(=O)[C@@H](N)CCSC)C(=O)N[C@@H](CO)C(=O)N[C@@H](Cc1ccccc1)C(=O)N[C@@H](Cc1c[nH]c2ccccc12)C(=O)NCC(=O)O [compound 210] (H-MAFLISFWG-OH)	96.4
< 7.5	1 to 10	0.99	CC[C@H](C)[C@H](NC(=O)[C@H](CC(C)C)NC(=O)[C@H](Cc1ccccc1)NC(=O)[C@H](Cc1c[nH]c2ccccc12)NC(=O)[C@H](CCSC)NC(=O)[C@H](CCCNC(=N)N)NC(=O)CNC(=O)[C@@H](N)CCSC)C(=O)N[C@@H](CO)C(=O)N[C@@H](Cc1ccccc1)C(=O)N[C@@H](Cc1c[nH]c2ccccc12)C(=O)NCC(=O)O [compound 67] (H-MGRMWFLISFWG-OH)	101
< 7.5	0.4 to 1	2.58	CC[C@H](C)[C@H](NC(=O)[C@H](CC(C)C)NC(=O)[C@H](Cc1ccccc1)NC(=O)[C@H](Cc1c[nH]c2ccccc12)NC(C)=O)C(=O)N[C@@H](C)C(=O)N[C@@H](Cc1ccccc1)C(=O)N[C@@H](Cc1c[nH]c2ccccc12)C(=O)NCC(=O)O [compound 196] (Ac-WFLIAFWG-OH)	105
< 7.5	> 30	–	CC[C@H](C)[C@H](NC(=O)[C@H](CC(C)C)NC(=O)[C@H](Cc1ccccc1)NC(=O)[C@H](Cc1c[nH]c2ccccc12)NC(=O)[C@@H](N)CCSC)C(=O)N[C@@H](Cc1c[nH]cn1)C(=O)N[C@@H](Cc1ccccc1)C(=O)N[C@@H](Cc1c[nH]c2ccccc12)C(=O)NCC(=O)O [compound 163] (H-MWFLIHFWG-OH)	100
< 7.5	1 to 10	0.67	CC[C@H](C)[C@H](NC(=O)[C@H](CC(C)C)NC(=O)[C@H](Cc1ccccc1)NC(=O)[C@H](Cc1c[nH]c2ccccc12)NC(=O)[C@@H](N)CCSC)C(=O)N[C@@H](CS)C(=O)N[C@@H](C)C(=O)N[C@@H](Cc1c[nH]c2ccccc12)C(=O)NCC(=O)O [compound 211] (H-MWFLICAWG-OH)	93.9
< 7.5	0.4 to 1	2.29	CC[C@H](C)[C@H](NC(=O)[C@H](CC(C)C)NC(=O)[C@H](Cc1ccccc1)NC(=O)[C@H](Cc1c[nH]c2ccccc12)NC(=O)[C@@H](N)CCSC)C(=O)N[C@@H](CO)C(=O)N[C@@H](Cc1ccccc1)C(=O)N[C@@H](Cc1c[nH]c2ccccc12)C(=O)N[C@@H](CCC(=O)O)C(=O)NCC(=O)O [compound 47] (H-MWFLISFWEG-OH)	103
< 7.5	1 to 10	0.7	CC[C@H](C)[C@H](NC(=O)[C@H](CC(C)C)NC(=O)[C@@H](NC(=O)[C@H](Cc1c[nH]c2ccccc12)NC(=O)[C@H](CCSC)NC(=O)[C@@H](N)Cc1c[nH]cn1)[C@@H](C)CC)C(=O)N[C@@H](CS)C(=O)N[C@@H](Cc1ccccc1)C(=O)N[C@@H](Cc1c[nH]c2ccccc12)C(=O)NCC(=O)O [compound 114] (H-HMWILICFWG-OH)	123
